# Test results reported in the supplement of paper PMC10307832.
# Experiments:
# Experiment in all cases: relative viability (nuclei count vs DMSO), 5 days (fraction); higher = more cells survive
# FG-4592 + Olaparib = compound: Cc1nc(C(=O)NCC(=O)O)c(O)c2ccc(Oc3ccccc3)cc12 [FG-4592] + O=C(c1cc(Cc2n[nH]c(=O)c3ccccc23)ccc1F)N1CCN(C(=O)C2CC2)CC1 [Olaparib] (partner 8 µM)
# In short: (§1)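 For relative viability, nuclei counts in treated wells were divided by those in vehicle wells. Lung cancer cell lines had been pin-tool dosed in 1536-well plates the day after seeding and cultured for 5 days, then fixed and stained in one step (final 0.05% Triton X-100, 1% formaldehyde, 1 ug/ml Hoechst) and imaged at 4×. Doses were one drug alone or a fixed anchor-drug dose plus five library-drug doses (not always all listed) in √10 steps, and values are duplicate-plate medians.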
# IU1-47 + Lapatinib = compound: CC1=CC(=C(N1C2=CC=C(C=C2)Cl)C)C(=O)CN3CCCCC3 [IU1-47] + CS(=O)(=O)CCNCc1ccc(-c2ccc3ncnc(Nc4ccc(OCc5cccc(F)c5)c(Cl)c4)c3c2)o1 [Lapatinib] (partner 2 µM)
# In short: as §1
# IU1-47 + Dasatinib = compound: CC1=CC(=C(N1C2=CC=C(C=C2)Cl)C)C(=O)CN3CCCCC3 [IU1-47] + Cc1nc(Nc2ncc(C(=O)Nc3c(C)cccc3Cl)s2)cc(N2CCN(CCO)CC2)n1 [Dasatinib] (partner 0.075 µM)
# In short: as §1
# FG-4592 + Crizotinib = compound: Cc1nc(C(=O)NCC(=O)O)c(O)c2ccc(Oc3ccccc3)cc12 [FG-4592] + C[C@@H](Oc1cc(-c2cnn(C3CCNCC3)c2)cnc1N)c1c(Cl)ccc(F)c1Cl [Crizotinib] (partner 1 µM)
# In short: as §1
cell line,measurement,setting,value
NCI-H3122,relative viability,FG-4592 + Olaparib; first compound 0.08 µM,0.637
same,relative viability,FG-4592 + Olaparib; first compound 0.253 µM,0.606
same,relative viability,FG-4592 + Olaparib; first compound 0.8 µM,0.681
same,relative viability,FG-4592 + Olaparib; first compound 2.53 µM,0.656
same,relative viability,FG-4592 + Olaparib; first compound 8 µM,0.661
same,relative viability,IU1-47 + Lapatinib; first compound 0.08 µM,1.06
same,relative viability,IU1-47 + Lapatinib; first compound 0.253 µM,1.06
same,relative viability,IU1-47 + Lapatinib; first compound 0.8 µM,1.06
same,relative viability,IU1-47 + Lapatinib; first compound 2.53 µM,1.09
same,relative viability,IU1-47 + Lapatinib; first compound 8 µM,1.03
same,relative viability,IU1-47 + Dasatinib; first compound 0.253 µM,0.816
same,relative viability,IU1-47 + Dasatinib; first compound 0.8 µM,0.854
same,relative viability,IU1-47 + Dasatinib; first compound 2.53 µM,0.892
same,relative viability,IU1-47 + Dasatinib; first compound 8 µM,1.01
same,relative viability,FG-4592 + Crizotinib; first compound 0.08 µM,0.277
same,relative viability,FG-4592 + Crizotinib; first compound 0.253 µM,0.271
same,relative viability,FG-4592 + Crizotinib; first compound 0.8 µM,0.26
same,relative viability,FG-4592 + Crizotinib; first compound 2.53 µM,0.3
same,relative viability,FG-4592 + Crizotinib; first compound 8 µM,0.255
PC-3 [JPC-3],relative viability,FG-4592 + Olaparib; first compound 0.08 µM,1.1
same,relative viability,FG-4592 + Olaparib; first compound 0.253 µM,0.975
same,relative viability,FG-4592 + Olaparib; first compound 2.53 µM,1.1
same,relative viability,FG-4592 + Olaparib; first compound 8 µM,1.12
same,relative viability,IU1-47 + Lapatinib; first compound 0.08 µM,0.47
same,relative viability,IU1-47 + Lapatinib; first compound 0.253 µM,0.46
same,relative viability,IU1-47 + Lapatinib; first compound 0.8 µM,0.509
same,relative viability,IU1-47 + Lapatinib; first compound 8 µM,0.461
same,relative viability,IU1-47 + Dasatinib; first compound 0.08 µM,1.01
same,relative viability,IU1-47 + Dasatinib; first compound 0.253 µM,1.02
same,relative viability,IU1-47 + Dasatinib; first compound 0.8 µM,0.982
same,relative viability,IU1-47 + Dasatinib; first compound 2.53 µM,0.956
same,relative viability,IU1-47 + Dasatinib; first compound 8 µM,0.788
same,relative viability,FG-4592 + Crizotinib; first compound 0.08 µM,1
same,relative viability,FG-4592 + Crizotinib; first compound 0.253 µM,0.905
same,relative viability,FG-4592 + Crizotinib; first compound 0.8 µM,1.12
same,relative viability,FG-4592 + Crizotinib; first compound 2.53 µM,0.98
same,relative viability,FG-4592 + Crizotinib; first compound 8 µM,0.988
PC-14,relative viability,FG-4592 + Olaparib; first compound 0.08 µM,0.268
same,relative viability,FG-4592 + Olaparib; first compound 0.253 µM,0.289
same,relative viability,FG-4592 + Olaparib; first compound 0.8 µM,0.258
same,relative viability,FG-4592 + Olaparib; first compound 2.53 µM,0.248
same,relative viability,FG-4592 + Olaparib; first compound 8 µM,0.302
same,relative viability,IU1-47 + Lapatinib; first compound 0.08 µM,0.273
same,relative viability,IU1-47 + Lapatinib; first compound 0.253 µM,0.32
same,relative viability,IU1-47 + Lapatinib; first compound 0.8 µM,0.407
same,relative viability,IU1-47 + Lapatinib; first compound 2.53 µM,0.304
same,relative viability,IU1-47 + Lapatinib; first compound 8 µM,0.304
same,relative viability,IU1-47 + Dasatinib; first compound 0.08 µM,0.223
same,relative viability,IU1-47 + Dasatinib; first compound 0.253 µM,0.257
same,relative viability,IU1-47 + Dasatinib; first compound 0.8 µM,0.209
same,relative viability,IU1-47 + Dasatinib; first compound 2.53 µM,0.226
same,relative viability,IU1-47 + Dasatinib; first compound 8 µM,0.205
same,relative viability,FG-4592 + Crizotinib; first compound 0.08 µM,0.893
same,relative viability,FG-4592 + Crizotinib; first compound 0.253 µM,0.863
same,relative viability,FG-4592 + Crizotinib; first compound 0.8 µM,1.02
same,relative viability,FG-4592 + Crizotinib; first compound 2.53 µM,0.961
same,relative viability,FG-4592 + Crizotinib; first compound 8 µM,0.922
RERF-LC-KJ,relative viability,FG-4592 + Olaparib; first compound 0.08 µM,0.853
same,relative viability,FG-4592 + Olaparib; first compound 0.253 µM,0.913
same,relative viability,FG-4592 + Olaparib; first compound 0.8 µM,0.861
same,relative viability,FG-4592 + Olaparib; first compound 2.53 µM,0.996
same,relative viability,FG-4592 + Olaparib; first compound 8 µM,0.894
same,relative viability,IU1-47 + Lapatinib; first compound 0.08 µM,0.91
same,relative viability,IU1-47 + Lapatinib; first compound 0.253 µM,0.868
same,relative viability,IU1-47 + Lapatinib; first compound 0.8 µM,0.873
same,relative viability,IU1-47 + Lapatinib; first compound 2.53 µM,0.835
same,relative viability,IU1-47 + Lapatinib; first compound 8 µM,0.829
same,relative viability,IU1-47 + Dasatinib; first compound 0.08 µM,0.926
same,relative viability,IU1-47 + Dasatinib; first compound 0.253 µM,0.947
same,relative viability,IU1-47 + Dasatinib; first compound 0.8 µM,0.817
same,relative viability,IU1-47 + Dasatinib; first compound 2.53 µM,0.877
same,relative viability,IU1-47 + Dasatinib; first compound 8 µM,0.781
same,relative viability,FG-4592 + Crizotinib; first compound 0.08 µM,0.798
same,relative viability,FG-4592 + Crizotinib; first compound 0.253 µM,0.8
same,relative viability,FG-4592 + Crizotinib; first compound 0.8 µM,0.849
same,relative viability,FG-4592 + Crizotinib; first compound 2.53 µM,0.837
same,relative viability,FG-4592 + Crizotinib; first compound 8 µM,0.771
SK-LU-1,relative viability,FG-4592 + Olaparib; first compound 0.08 µM,0.322
same,relative viability,FG-4592 + Olaparib; first compound 0.253 µM,0.396
same,relative viability,FG-4592 + Olaparib; first compound 0.8 µM,0.491
same,relative viability,FG-4592 + Olaparib; first compound 2.53 µM,0.444
same,relative viability,FG-4592 + Olaparib; first compound 8 µM,0.472
same,relative viability,IU1-47 + Lapatinib; first compound 0.08 µM,0.857
same,relative viability,IU1-47 + Lapatinib; first compound 0.253 µM,0.967
same,relative viability,IU1-47 + Lapatinib; first compound 0.8 µM,0.82
same,relative viability,IU1-47 + Lapatinib; first compound 2.53 µM,0.822
same,relative viability,IU1-47 + Lapatinib; first compound 8 µM,0.839
same,relative viability,IU1-47 + Dasatinib; first compound 0.08 µM,0.208
same,relative viability,IU1-47 + Dasatinib; first compound 0.253 µM,0.187
same,relative viability,IU1-47 + Dasatinib; first compound 0.8 µM,0.182
same,relative viability,IU1-47 + Dasatinib; first compound 2.53 µM,0.18
same,relative viability,IU1-47 + Dasatinib; first compound 8 µM,0.159
same,relative viability,FG-4592 + Crizotinib; first compound 0.08 µM,0.806
same,relative viability,FG-4592 + Crizotinib; first compound 0.253 µM,0.731
same,relative viability,FG-4592 + Crizotinib; first compound 0.8 µM,0.912
same,relative viability,FG-4592 + Crizotinib; first compound 8 µM,0.968
SK-MES-1,relative viability,FG-4592 + Olaparib; first compound 0.08 µM,0.655
same,relative viability,FG-4592 + Olaparib; first compound 0.253 µM,0.624
same,relative viability,FG-4592 + Olaparib; first compound 0.8 µM,0.786
same,relative viability,FG-4592 + Olaparib; first compound 2.53 µM,0.748
same,relative viability,FG-4592 + Olaparib; first compound 8 µM,0.66
same,relative viability,IU1-47 + Lapatinib; first compound 0.08 µM,0.5
same,relative viability,IU1-47 + Lapatinib; first compound 0.253 µM,0.503
same,relative viability,IU1-47 + Lapatinib; first compound 0.8 µM,0.541
same,relative viability,IU1-47 + Lapatinib; first compound 2.53 µM,0.465
same,relative viability,IU1-47 + Lapatinib; first compound 8 µM,0.45
same,relative viability,IU1-47 + Dasatinib; first compound 0.08 µM,0.376
same,relative viability,IU1-47 + Dasatinib; first compound 0.253 µM,0.467
same,relative viability,IU1-47 + Dasatinib; first compound 0.8 µM,0.335
same,relative viability,IU1-47 + Dasatinib; first compound 2.53 µM,0.405
same,relative viability,IU1-47 + Dasatinib; first compound 8 µM,0.315
same,relative viability,FG-4592 + Crizotinib; first compound 0.08 µM,0.913
same,relative viability,FG-4592 + Crizotinib; first compound 0.253 µM,0.854
same,relative viability,FG-4592 + Crizotinib; first compound 0.8 µM,1
same,relative viability,FG-4592 + Crizotinib; first compound 2.53 µM,1.03
same,relative viability,FG-4592 + Crizotinib; first compound 8 µM,1
SW 1573,relative viability,FG-4592 + Olaparib; first compound 0.08 µM,0.426
same,relative viability,FG-4592 + Olaparib; first compound 0.253 µM,0.632
same,relative viability,FG-4592 + Olaparib; first compound 0.8 µM,0.597
same,relative viability,FG-4592 + Olaparib; first compound 2.53 µM,0.612
same,relative viability,FG-4592 + Olaparib; first compound 8 µM,0.483
same,relative viability,IU1-47 + Lapatinib; first compound 0.08 µM,1.08
same,relative viability,IU1-47 + Lapatinib; first compound 0.253 µM,1.06
same,relative viability,IU1-47 + Lapatinib; first compound 0.8 µM,0.894
same,relative viability,IU1-47 + Lapatinib; first compound 2.53 µM,0.966
same,relative viability,IU1-47 + Lapatinib; first compound 8 µM,1.16
same,relative viability,IU1-47 + Dasatinib; first compound 0.08 µM,0.498
same,relative viability,IU1-47 + Dasatinib; first compound 0.253 µM,0.524
same,relative viability,IU1-47 + Dasatinib; first compound 0.8 µM,0.584
same,relative viability,IU1-47 + Dasatinib; first compound 2.53 µM,0.551
same,relative viability,IU1-47 + Dasatinib; first compound 8 µM,0.577
same,relative viability,FG-4592 + Crizotinib; first compound 0.08 µM,0.664
same,relative viability,FG-4592 + Crizotinib; first compound 0.253 µM,0.7
same,relative viability,FG-4592 + Crizotinib; first compound 0.8 µM,0.71
same,relative viability,FG-4592 + Crizotinib; first compound 2.53 µM,1
same,relative viability,FG-4592 + Crizotinib; first compound 8 µM,0.632
UMC-11,relative viability,FG-4592 + Olaparib; first compound 0.08 µM,0.286
same,relative viability,FG-4592 + Olaparib; first compound 0.253 µM,0.332
same,relative viability,FG-4592 + Olaparib; first compound 0.8 µM,0.357
same,relative viability,FG-4592 + Olaparib; first compound 2.53 µM,0.341
same,relative viability,FG-4592 + Olaparib; first compound 8 µM,0.348
same,relative viability,IU1-47 + Lapatinib; first compound 0.08 µM,0.887
same,relative viability,IU1-47 + Lapatinib; first compound 0.253 µM,0.877
same,relative viability,IU1-47 + Lapatinib; first compound 0.8 µM,1.03
same,relative viability,IU1-47 + Lapatinib; first compound 2.53 µM,1.24
same,relative viability,IU1-47 + Lapatinib; first compound 8 µM,0.876
same,relative viability,IU1-47 + Dasatinib; first compound 0.08 µM,0.429
same,relative viability,IU1-47 + Dasatinib; first compound 0.253 µM,0.423
same,relative viability,IU1-47 + Dasatinib; first compound 0.8 µM,0.572
same,relative viability,IU1-47 + Dasatinib; first compound 2.53 µM,0.388
same,relative viability,IU1-47 + Dasatinib; first compound 8 µM,0.341
same,relative viability,FG-4592 + Crizotinib; first compound 0.08 µM,0.546
same,relative viability,FG-4592 + Crizotinib; first compound 0.253 µM,0.644
same,relative viability,FG-4592 + Crizotinib; first compound 0.8 µM,0.582
same,relative viability,FG-4592 + Crizotinib; first compound 2.53 µM,0.642
same,relative viability,FG-4592 + Crizotinib; first compound 8 µM,0.536
